Experiments:
[1] = affected individuals, oral dosing; cited from earlier work
[2] = tested on: male Alpk:ApfCD-1 albino mice; details: cited from earlier work
[3] = target: T1, H420R mutant tyrosinase in Melan-c cells (Mus musculus, UniProt P11344, H420R); assay: Tyrosinase enzyme activity in transfected Melan-c cells, H420R; assay type: cell-based; details: 1 mM tyrosine; Melan-c cells expressing H420R; p=0.03
T1 construct: expressed in transfected cells; host or cells: Melan-c cells (albino mouse melanocytes), Fugene HD transfection
T1 sequence (P11344 19-533 H420R): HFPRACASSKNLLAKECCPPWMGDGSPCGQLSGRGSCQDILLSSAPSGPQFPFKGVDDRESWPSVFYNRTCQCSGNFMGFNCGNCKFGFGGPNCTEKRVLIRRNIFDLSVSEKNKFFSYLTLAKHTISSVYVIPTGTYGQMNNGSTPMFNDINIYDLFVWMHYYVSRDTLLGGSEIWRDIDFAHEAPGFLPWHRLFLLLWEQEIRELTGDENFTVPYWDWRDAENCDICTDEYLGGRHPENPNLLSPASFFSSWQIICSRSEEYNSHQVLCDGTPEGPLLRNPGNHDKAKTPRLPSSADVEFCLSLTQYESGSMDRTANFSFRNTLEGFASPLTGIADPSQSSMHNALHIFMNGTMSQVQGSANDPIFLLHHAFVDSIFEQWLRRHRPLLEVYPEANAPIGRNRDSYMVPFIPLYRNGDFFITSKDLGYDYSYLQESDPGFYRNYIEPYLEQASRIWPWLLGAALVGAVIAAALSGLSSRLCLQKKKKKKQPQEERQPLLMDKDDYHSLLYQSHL
Experimental: Melan-c cell cultures. Melan-c cells (melanocytes derived from mice homozygous for the albino mutation (D. C. Bennett et al., Development, 105:379 (1989)) were cultured in RPMI 1640, pH 6.9 supplemented with 5% fetal bovine serum (FBS), streptomycin-penicillin (100 μg/ml each), 200 nM tetradeconyl phorbol acetate (TPA), and 100 μM β-mercaptoethanol, at 37° C. in 10% CO2. Cells were transfected using Fugene HD reagent according to the manufacturer's instructions (Roche Diagnostics Inc., Indianapolis, Ind.) in presence or absence of 1 mM tyrosine. After 24 hours, cells were washed twice with saline phosphate buffer, harvested in 10 mM sodium phosphate, pH 6.8, containing 1% Igepal CA-630 and protease inhibitor (Roche), and microcentrifuged for 30 minutes at 13,200×g, at a temperature of about 4° C. to obtain a protein lysate.
Diphenol oxidase activity of tyrosinase was determined spectrophotometrically according to Slominski et al., J. Invest. Dermatol., 96:172 (1991), with minor modifications. Briefly, the reaction mixtures contained 7 mM L-dopa in 0.1 M sodium phosphate buffer (pH 6.8) and protein lysate (20 mg/ml) was incubated at 37° C. and monitored by measuring the absorbance at 475 nm. All experiments were conducted in triplicate. […]

[4] = tested on: melanocytes from an OCA-1A patient; assay: Human melanocyte melanin assay, OCA-1A patient; assay type: cell-based; details: presence or absence of 1 mM tyrosine
Experimental: Human melanocyte culture and melanin assay. Human melanocytes were established from skin punch biopsies. Skin specimens were washed with PBS then treated with 0.25% trypsin-EDTA (Gibco 25200) for about 2 hours followed by vigorous vortexing to separate the epidermis. The epidermis was sectioned and attached to scored patches on the bottom of a 6-well polystyrene culture dish before being covered with melanocyte media. About 1000 ml of melanocyte media was made from 950 ml Ham's F10 (Gibco 1550), 25 ml FBS, 5 ug bFGF (Sigma F0291), 10 μg endothelin (Sigma, E7764, Sigma Chemicals, St. Louis, Mo.), 7.5 mg IBMX (Sigma 17018), 30 μg cholera toxin (Sigma C8052), 3.3 μg TPA (Sigma P8139), 10 ml PenStrepGlutamine, 1 ml fungizone and the media was 0.22 μm filtered.
Melanocytes were plated on 6 well dishes and grown to confluency. Melanin assays were run in triplicate by supplementing three wells per plate with 1 mM tyrosine (Sigma T8566), using the remaining 3 wells as untreated controls. Treatment time was approximately one week. […] The OD475 was measured and converted to melanin content via a standard curve using synthetic melanin (Sigma M0418). The data were normalized to protein content, determined using a bicinchoninic (BCA) assay kit (BioRad, Inc., Hercules, Calif.). Differences between treated and untreated measurements were analyzed with a two-tailed unpaired t-test. […]

SMILES: O=C1CCCC(=O)C1C(=O)c1ccc(C(F)(F)F)cc1[N+](=O)[O-] [NTBC, 2-(-2-nitro-4 trifluoromethylbenzoyl)-1,3 cyclohexanedione]
- Half-life [1]: 50 to 60 h
- Tolerated NTBC dose ([2]; male Alpk:ApfCD-1 albino mice, age 3-6 weeks): up to 160 mg/kg/day
- NTBC dose at which maximum plasma tyrosine concentrations were achieved ([2]; mice, toxicologic studies (Lock et al.)): ≤ 10 mg/kg

SMILES: N[C@@H](Cc1ccc(O)cc1)C(=O)O [tyrosine]
- Tyrosinase enzyme activity over baseline [3]: increased enzyme activity over baseline
- Pigment production [4]: did not produce detectable pigment
